Experimental data: ChEMBL document CHEMBL1150842, “Two new fatty diterpenoids from Salvia miltiorrhiza” (J Nat Prod, 2001)

Key:
Type in all cases: functional, cell-based
Conditions in all cases: Oryctolagus cuniculus
[1] = Antiplatelet activity against washed rabbit platelet assessed as inhibition of thrombin-induced platelet aggregation preincubated for 3 mins before thrombin challenge
[2] = Antiplatelet activity against washed rabbit platelet assessed as inhibition of arachidonic acid-induced platelet aggregation preincubated for 3 mins before arachidonic acid challenge
[3] = Antiplatelet activity against washed rabbit platelet assessed as inhibition of collagen-induced platelet aggregation preincubated for 3 mins before collagen challenge

## CCCCCCCC/C=C\CCCCCCCC(=O)OCC(C)C1=C(O)C(=O)c2c(ccc3c(C)cccc23)C1=O (configuration not stated) [16-O-OLEOYL DANSHENXINKUN A]
[1]
  IC50: > 100 µM
[2]
  IC50: 25.5 µM
[3]
  IC50: 60.5 µM

## CC(=O)Oc1ccccc1C(=O)O [ASPIRIN]
[2]
  IC50: 27 µM

## CCCCCCCC/C=C\CCCCCCCC(=O)OCC(C)C1=C(O)C(=O)c2c(ccc3c2CCCC3(C)C)C1=O (configuration not stated)
[1]
  IC50: > 100 µM
[2]
  IC50: 5.1 µM
[3]
  IC50: 50.4 µM
